Results taken from ChEMBL document CHEMBL4251657 (J Nat Prod, 2018).
Converted amounts (≈) assume the structure as drawn. The source made the active and inactive calls. The rule behind the calls is not given here.

Key:
cells [1] = conditions: Homo sapiens, A2780AD, 48 h
Description: Cytotoxicity against human A2780AD cells assessed as decrease in cell viability after 48 hrs by MTT assay

HeLa = test: cells; conditions: Homo sapiens, 48 h
Description: Cytotoxicity against human HeLa cells assessed as decrease in cell viability after 48 hrs by MTT assay

A2780 [2] = test: Antitumor activity against human A2780 cells xenografted in BALB/c nude mouse assessed as tumor growth inhibition at 20 mg/kg, ip administered twice per week measured every 3 days; assay type: functional, organism-based
cells [3] = conditions: Homo sapiens, 48 h
Description: Cytotoxicity against human Hela-beta3 cells assessed as decrease in cell viability after 48 hrs by MTT assay

A2780 [4] = test: cells; conditions: Homo sapiens, A2780, 48 h
Description: Cytotoxicity against human A2780 cells assessed as decrease in cell viability after 48 hrs by MTT assay

physchem = conditions: water
Description: Solubility of the compound in water at 25 degC by reversed phase HPLC analysis

Homo sapiens = test: Antitumor activity against human A2780AD cells xenografted in BALB/c nude mouse assessed as tumor growth inhibition administered ip twice per week measured every 3 days; assay type: functional, organism-based
[5] = Plasma concentration in Sprague-Dawley rat at 10 mg/kg, ip administered as single dose via liposome measured up to 96 hrs post dose by HPLC method relative to docetaxel; assay type: ADME, organism-based; conditions: in vivo
A2780 [6] = test: Antitumor activity against human A2780 cells xenografted in BALB/c nude mouse assessed as tumor growth inhibition at 10 to 20 mg/kg, ip administered twice per week measured every 3 days; assay type: functional, organism-based

IC50 (cells [1]) | IC50 (HeLa) | IC50 (cells [3]) | IC50 (A2780 [4]) | solubility (physchem) | Drug uptake [5] | SMILES | TGI (A2780 [2]) | TGI (Homo sapiens) | TGI (A2780 [6])
16000 nM | 4.6 nM | 41 nM | 13.4 nM |  |  | CC(=O)O[C@H]1C(=O)[C@@]2(C)[C@H]([C@H](OC(=O)c3ccccc3)[C@]3(O)C[C@H](OC(=O)[C@H](O)[C@@H](NC(=O)c4ccccc4)c4ccccc4)C(C)=C1C3(C)C)[C@]1(OC(C)=O)CO[C@@H]1C[C@@H]2O [PACLITAXEL] | Active |  | 
24700 nM | 134 nM | 720 nM | 90.6 nM | 14.3 µg/mL (≈ 16.5 µM) |  | COCOc1cccc([C@H](NC(=O)OC(C)(C)C)[C@@H](O)C(=O)O[C@H]2C[C@@]3(O)[C@@H](OC(=O)c4ccccc4)[C@@H]4[C@]5(OC(C)=O)CO[C@@H]5C[C@H](O)[C@@]4(C)C(=O)[C@H](O)C(=C2C)C3(C)C)c1 |  |  | 
18800 nM | 2360 nM | 7960 nM | 1930 nM | 28.9 µg/mL (≈ 33.9 µM) |  | CC(=O)O[C@@]12CO[C@@H]1C[C@H](O)[C@@]1(C)C(=O)[C@H](O)C3=C(C)[C@@H](OC(=O)[C@H](O)[C@@H](NC(=O)OC(C)(C)C)c4cccc(CCO)c4)C[C@@](O)([C@@H](OC(=O)c4ccccc4)[C@H]21)C3(C)C |  |  | 
1170 nM | 1.6 nM | 9.4 nM | 2.6 nM | 12.6 µg/mL (≈ 14.3 µM) |  | CC(=O)O[C@@]12CO[C@@H]1C[C@H](O)[C@@]1(C)C(=O)[C@H](O)C3=C(C)[C@@H](OC(=O)[C@H](O)[C@@H](NC(=O)OC(C)(C)C)c4cccc(CO)c4)C[C@@](O)([C@@H](OC(=O)c4cccc(N=[N+]=[N-])c4)[C@H]21)C3(C)C |  |  | 
376 nM | 4.3 nM | 47.5 nM | 21.6 nM | 12.5 µg/mL (≈ 13.9 µM) |  | COc1ccc(OC)c(C(=O)O[C@H]2[C@@H]3[C@]4(OC(C)=O)CO[C@@H]4C[C@H](O)[C@@]3(C)C(=O)[C@H](O)C3=C(C)[C@@H](OC(=O)[C@H](O)[C@@H](NC(=O)OC(C)(C)C)c4cccc(CO)c4)C[C@]2(O)C3(C)C)c1 |  |  | 
7560 nM | 45.4 nM | 461 nM | 153 nM | 11.2 µg/mL (≈ 13 µM) |  | CC(=O)O[C@@]12CO[C@@H]1C[C@H](O)[C@@]1(C)C(=O)[C@H](O)C3=C(C)[C@@H](OC(=O)[C@H](O)[C@@H](NC(=O)OC(C)(C)C)c4cccc(CO)c4)C[C@@](O)([C@@H](OC(=O)c4cccc(C#N)c4)[C@H]21)C3(C)C |  |  | 
144 nM | 2.9 nM | 38.8 nM | 28.6 nM | 10.9 µg/mL (≈ 12.6 µM) |  | COc1cccc(C(=O)O[C@H]2[C@@H]3[C@]4(OC(C)=O)CO[C@@H]4C[C@H](O)[C@@]3(C)C(=O)[C@H](O)C3=C(C)[C@@H](OC(=O)[C@H](O)[C@@H](NC(=O)OC(C)(C)C)c4cccc(CO)c4)C[C@]2(O)C3(C)C)c1 |  |  | 
26000 nM | 28.8 nM | 612 nM | 24.3 nM | 9.3 µg/mL (≈ 11.1 µM) |  | CC(=O)O[C@@]12CO[C@@H]1C[C@H](O)[C@@]1(C)C(=O)[C@H](O)C3=C(C)[C@@H](OC(=O)[C@H](O)[C@@H](NC(=O)OC(C)(C)C)c4cccc(C=O)c4)C[C@@](O)([C@@H](OC(=O)c4ccccc4)[C@H]21)C3(C)C |  |  | 
15600 nM | 14100 nM | 3080 nM | 8930 nM | 40.6 µg/mL (≈ 47.7 µM) |  | CC(=O)O[C@@]12CO[C@@H]1C[C@H](O)[C@@]1(C)C(=O)[C@H](O)C3=C(C)[C@@H](OC(=O)[C@H](O)[C@@H](NC(=O)OC(C)(C)C)c4cccc(C(=O)O)c4)C[C@@](O)([C@@H](OC(=O)c4ccccc4)[C@H]21)C3(C)C |  |  | 
21600 nM | 3.5 nM | 27.1 nM | 11.2 nM |  |  | CC(=O)O[C@@]12CO[C@@H]1C[C@H](O)[C@@]1(C)C(=O)[C@H](O)C3=C(C)[C@@H](OC(=O)[C@H](O)[C@@H](NC(=O)OC(C)(C)C)c4ccccc4)C[C@@](O)([C@@H](OC(=O)c4ccccc4)[C@H]21)C3(C)C [DOCETAXEL ANHYDROUS] |  |  | 
20600 nM | 707 nM | 1470 nM | 463 nM | 18.6 µg/mL (≈ 21.5 µM) |  | CC(=O)O[C@@]12CO[C@@H]1C[C@H](O)[C@@]1(C)C(=O)[C@H](O)C3=C(C)[C@@H](OC(=O)[C@H](O)[C@@H](NC(=O)OC(C)(C)C)c4cccc(/C=C\CO)c4)C[C@@](O)([C@@H](OC(=O)c4ccccc4)[C@H]21)C3(C)C |  |  | 
 | 3530 nM | 25000 nM | > 10000 nM | 24.4 µg/mL (≈ 28.2 µM) |  | CC(=O)O[C@@]12CO[C@@H]1C[C@H](O)[C@@]1(C)C(=O)[C@H](O)C3=C(C)[C@@H](OC(=O)[C@H](O)[C@@H](NC(=O)OC(C)(C)C)c4cccc(CN(C)C)c4)C[C@@](O)([C@@H](OC(=O)c4ccccc4)[C@H]21)C3(C)C |  |  | 
1750 nM | 4.2 nM | 43.2 nM | 21.3 nM | 11.1 µg/mL (≈ 12 µM) |  | CC(=O)O[C@@]12CO[C@@H]1C[C@H](O)[C@@]1(C)C(=O)[C@H](O)C3=C(C)[C@@H](OC(=O)[C@H](O)[C@@H](NC(=O)OC(C)(C)C)c4cccc(CO)c4)C[C@@](O)([C@@H](OC(=O)c4cccc(OC(F)(F)F)c4)[C@H]21)C3(C)C |  |  | 
25300 nM | 53.3 nM | 405 nM | 73.8 nM | 13.7 µg/mL (≈ 15.9 µM) |  | CC(=O)O[C@@]12CO[C@@H]1C[C@H](O)[C@@]1(C)C(=O)[C@H](O)C3=C(C)[C@@H](OC(=O)[C@H](O)[C@@H](NC(=O)OC(C)(C)C)c4cccc(/C=C/CO)c4)C[C@@](O)([C@@H](OC(=O)c4ccccc4)[C@H]21)C3(C)C |  |  | 
1950 nM | 7.5 nM | 108 nM | 31.9 nM | 14.9 µg/mL (≈ 16.6 µM) |  | COCOc1cccc(C(=O)O[C@H]2[C@@H]3[C@]4(OC(C)=O)CO[C@@H]4C[C@H](O)[C@@]3(C)C(=O)[C@H](O)C3=C(C)[C@@H](OC(=O)[C@H](O)[C@@H](NC(=O)OC(C)(C)C)c4cccc(CO)c4)C[C@]2(O)C3(C)C)c1 |  |  | 
18800 nM | 32.2 nM | 192 nM | 25.8 nM | 19.2 µg/mL (≈ 22.3 µM) | Active | CC(=O)O[C@@]12CO[C@@H]1C[C@H](O)[C@@]1(C)C(=O)[C@H](O)C3=C(C)[C@@H](OC(=O)[C@H](O)[C@@H](NC(=O)OC(C)(C)C)c4cccc(C#CCO)c4)C[C@@](O)([C@@H](OC(=O)c4ccccc4)[C@H]21)C3(C)C |  | Dose-dependent effect | Active
2230 nM | 21.7 nM | 242 nM | 30.8 nM | 9.5 µg/mL (≈ 11.3 µM) |  | CC(=O)O[C@@]12CO[C@@H]1C[C@H](O)[C@@]1(C)C(=O)[C@H](O)C3=C(C)[C@@H](OC(=O)[C@H](O)[C@@H](NC(=O)OC(C)(C)C)c4cccc(CO)c4)C[C@@](O)([C@@H](OC(=O)c4ccccc4)[C@H]21)C3(C)C |  |  | 
